The values below come from patent EP3057951B1, “METHYLENE LINKED QUINOLINYL MODULATORS OF ROR-GAMMA-T” (Janssen Pharmaceutica NV, priority 2013, dated 2015).

Counter-ions that a name gives are not always drawn.

The first test deals with T1, wild type human RORγt LBD (Homo sapiens, UniProt P51449).
T1 construct: expressed in transfected cells; host or cells: HEK293T
T1 sequence (P51449 258-518): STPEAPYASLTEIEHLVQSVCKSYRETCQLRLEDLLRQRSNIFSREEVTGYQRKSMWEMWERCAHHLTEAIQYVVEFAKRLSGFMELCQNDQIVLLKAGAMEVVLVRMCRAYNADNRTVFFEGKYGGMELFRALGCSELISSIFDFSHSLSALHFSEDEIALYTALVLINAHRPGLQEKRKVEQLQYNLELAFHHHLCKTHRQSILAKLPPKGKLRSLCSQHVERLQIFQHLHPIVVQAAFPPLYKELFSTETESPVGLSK
The test is described as follows: RORγt (LBD) Reporter Assay (GAL4-luciferase, HEK293T cells). As to conditions: 6 µM compound concentration; 6 µM. Type of test: cell-based. (Reporter assays use an easily measured gene product as a stand-in for the process of interest.)
In the case of `COc1nc2ccc(C(O)(c3ccc(C)nc3C)c3cnnn3C)cc2c(Cl)c1Cc1ccc(C(F)(F)F)nc1` (single isomer, unassigned) [Example 40c, (4-Chloro-2-methoxy-3-((6-(trifluoromethyl)pyridin-3-yl)methyl)quinolin-6-yl)(2,6-dimethylpyridin-3-yl)(1-methyl-1H-1,2,3-triazol-5-yl)methanol], the “RORγt (LBD) Reporter Assay, % inhibition @ 6 µM” value (“RORγt … % inhibition @ 6 µM” below) is reported as 94%. Same read-out and setting: then `COc1nc2ccc(C(O)(c3ccccn3)c3cncn3C)cc2c(Cl)c1Cc1ccc(-n2cccn2)cc1` (single isomer, unassigned) [Example 64c, (3-(4-(1H-Pyrazol-1-yl)benzyl)-4-chloro-2-methoxyquinolin-6-yl)(1-methyl-1H-imidazol-5-yl)(pyridin-2-yl)methanol], with 107%; and `COc1nc2ccc(C(O)(c3cnnn3C)c3cnc(C)n3C)cc2c(Cl)c1Cc1ccc(F)cc1` (single isomer, unassigned) [Example 65c], with 81%.

Staying with this test, now noted: 6 µM compound concentration; HEK293T cells; 6 µM.
As to `Cn1cncc1C(O)(c1ccc(C(F)(F)F)nc1)c1ccc2nc(-n3cccn3)c(Cc3ccccc3)c(C#N)c2c1` (single isomer, unassigned) [Example 114c, 3-Benzyl-6-(hydroxy(1-methyl-1H-imidazol-5-yl)(6-(trifluoromethyl)pyridin-3-yl)methyl)-2-(1H-pyrazol-1-yl)quinoline-4-carbonitrile•TFA], the “RORγt … % inhibition @ 6 µM” value was 71%. In the case of `CC(=O)N1CCC(C(O)(c2ccc3nc(C(F)(F)F)c(Cc4ccccc4)c(Cl)c3c2)c2cncn2C)CC1` (single isomer, unassigned) [Example 115c, 1-(4-((3-Benzyl-4-chloro-2-(trifluoromethyl)quinolin-6-yl)(hydroxy)(1-methyl-1H-imidazol-5-yl)methyl)piperidin-1-yl)ethanone•TFA], the “RORγt … % inhibition @ 6 µM” value amounted to 70%. Still for that read-out and setting: the same measure for `COc1nc2ccc(C(N)(c3ccc(C(F)(F)F)nc3)c3cncn3C)cc2c(Cl)c1Cc1ccccc1` (single isomer, unassigned) [Example 120b, (3-Benzyl-4-chloro-2-methoxyquinolin-6-yl)(1-methyl-1H-imidazol-5-yl)(6-(trifluoromethyl)pyridin-3-yl)methanamine•TFA]: 27%; for `COc1nc2ccc(C(N)(c3ccc(C(F)(F)F)nc3)c3cncn3C)cc2c(Cl)c1Cc1ccccc1` (single isomer, unassigned) [Example 120c, (3-Benzyl-4-chloro-2-methoxyquinolin-6-yl)(1-methyl-1H-imidazol-5-yl)(6-(trifluoromethyl)pyridin-3-yl)methanamine•TFA]: 66%; for `CNC(c1ccc2nc(OC)c(Cc3ccc(C(F)(F)F)cc3)c(Cl)c2c1)(c1ccc(C)nc1C)c1cnnn1C` (single isomer, unassigned) [Example 121c, 1-(4-Chloro-2-methoxy-3-(4-(trifluoromethyl)benzyl)quinolin-6-yl)-1-(2,6-dimethylpyridin-3-yl)-N-methyl-1-(1-methyl-1H-1,2,3-triazol-5-yl)methanamine•TFA]: 101%.

The test is the same for the next values; noted with them: HEK-293T, read-out: RORγt (LBD) Reporter Assay, % inhibition @ 6 µM, 6 µM compound concentration.
Consider `COc1c(Cc2ccccc2)c(C(F)(F)F)nc2ccc(C(O)(c3ccc(Cl)cc3)c3cncn3C)cc12` (racemic) [Example 101a, (3-Benzyl-4-methoxy-2-(trifluoromethyl)quinolin-6-yl)(4-chlorophenyl)(1-methyl-1H-imidazol-5-yl)methanol•TFA], for which the inhibition at 6 µM worked out at 96%. For `COc1nc2ccc(C(O)(c3ccc(C)nc3C)c3cnnn3C)cc2c(Cl)c1Cc1ccc(C(F)(F)F)nc1` (single isomer, unassigned) [Example 40b, (4-Chloro-2-methoxy-3-((6-(trifluoromethyl)pyridin-3-yl)methyl)quinolin-6-yl)(2,6-dimethylpyridin-3-yl)(1-methyl-1H-1,2,3-triazol-5-yl)methanol], the inhibition at 6 µM was found to be 88%. Take `COc1nc2ccc(C(O)(c3ccccn3)c3cncn3C)cc2c(Cl)c1Cc1ccc(-n2cccn2)cc1` (single isomer, unassigned) [Example 64b, (3-(4-(1H-Pyrazol-1-yl)benzyl)-4-chloro-2-methoxyquinolin-6-yl)(1-methyl-1H-imidazol-5-yl)(pyridin-2-yl)methanol]: the inhibition at 6 µM stood at 103%. Still for that read-out and setting: then `COc1nc2ccc(C(O)(c3cnnn3C)c3cnc(C)n3C)cc2c(Cl)c1Cc1ccc(F)cc1` (single isomer, unassigned) [Example 65b], with 74%; and `COc1c(Cc2ccccc2)c(C(F)(F)F)nc2ccc(C(O)(c3ccc(Cl)cc3)c3cncn3C)cc12` (single isomer, unassigned) [Example 101b], with 62%. Still for that read-out and setting: then `COc1c(Cc2ccccc2)c(C(F)(F)F)nc2ccc(C(O)(c3ccc(Cl)cc3)c3cncn3C)cc12` (single isomer, unassigned) [Example 101c], with 89%.

Still in this test, the particulars now being: HEK-293T, read-out: RORγt (LBD) Reporter Assay, % inhibition @ 6 µM, 6 µM compound concentration; HEK293T cells.
For the compound `Cn1cncc1C(O)(c1ccc(C(F)(F)F)nc1)c1ccc2nc(-c3nccn3C)c(Cc3ccccc3)c(Cl)c2c1` (single isomer, unassigned) [Example 113c, (3-Benzyl-4-chloro-2-(1-methyl-1H-imidazol-2-yl)quinolin-6-yl)(1-methyl-1H-imidazol-5-yl)(6-(trifluoromethyl)pyridin-3-yl)methanol•TFA], the inhibition at 6 µM worked out at 90%.

Regarding `Cn1cncc1C(O)(c1ccc(C(F)(F)F)nc1)c1ccc2nc(-n3cccn3)c(Cc3ccccc3)c(C#N)c2c1` (single isomer, unassigned) [Example 114b, 3-Benzyl-6-(hydroxy(1-methyl-1H-imidazol-5-yl)(6-(trifluoromethyl)pyridin-3-yl)methyl)-2-(1H-pyrazol-1-yl)quinoline-4-carbonitrile•TFA], the inhibition at 6 µM was 86%. Same read-out and setting: then `CC(=O)N1CCC(C(O)(c2ccc3nc(C(F)(F)F)c(Cc4ccccc4)c(Cl)c3c2)c2cncn2C)CC1` (single isomer, unassigned) [Example 115b, 1-(4-((3-Benzyl-4-chloro-2-(trifluoromethyl)quinolin-6-yl)(hydroxy)(1-methyl-1H-imidazol-5-yl)methyl)piperidin-1-yl)ethanone•TFA], with 67%; and `CNC(c1ccc2nc(OC)c(Cc3ccc(C(F)(F)F)cc3)c(Cl)c2c1)(c1ccc(C)nc1C)c1cnnn1C` (single isomer, unassigned) [Example 121b, 1-(4-Chloro-2-methoxy-3-(4-(trifluoromethyl)benzyl)quinolin-6-yl)-1-(2,6-dimethylpyridin-3-yl)-N-methyl-1-(1-methyl-1H-1,2,3-triazol-5-yl)methanamine•TFA], with 98%; and `COc1nc2ccc(C(c3ccc(C)nc3C)(c3cnnn3C)N(C)C)cc2c(Cl)c1Cc1ccc(C(F)(F)F)cc1` (single isomer, unassigned) [Example 122b, 1-(4-Chloro-2-methoxy-3-(4-(trifluoromethyl)benzyl)quinolin-6-yl)-1-(2,6-dimethylpyridin-3-yl)-N,N-dimethyl-1-(1-methyl-1H-1,2,3-triazol-5-yl)methanamine•TFA], with 98%.
